Data on 50 molecules can be found in US20260138988A1, “Spiropyrrolidine Derived Antiviral Agents” (Enanta Pharmaceuticals, Inc., priority 2021, published 2026).

The first experiment deals with SARS-CoV-2 3CL-protease (Severe acute respiratory syndrome coronavirus 2, UniProt P0DTD1). As to the kind of experiment: SARS-CoV-2 3C-Like (3CL) Protease Fluorescence Assay (FRET). The following applies: IC50, SARS-CoV-2 3CL-protease 10 nM, test compounds 0-10 μM, duplicate. It counts as biochemical.
The term IC50 denotes the concentration at which inhibition is half-maximal. For `CC[C@H](NC(=O)C(F)(F)C(F)(F)C(F)(F)F)C(=O)N(C)[C@@H](CC(C)C)C(=O)N1C[C@]2(C[C@H]1C#N)C(=O)Nc1ccccc12` [Example 201], the IC50 was less than 0.1 µM.

Still in this experiment, the particulars now being: SARS-CoV-2 3CL-protease 10 nM, test compounds 0-10 μM, duplicate, read-out: IC50.
Take `CC(C)C[C@@H](C(=O)N1C[C@]2(C[C@H]1C#N)C(=O)Nc1ccccc12)N(C)C(=O)[C@H]1CC[C@H](c2ccc(F)cc2)N1C(C)C` [Example 237]: the IC50 is less than 0.1 µM.

As to `C[C@H](NC(=O)c1cccc(-c2ccccc2)c1)C(=O)N(C)[C@@H](CC(C)(C)C)C(=O)N1C[C@]2(C[C@H]1C#N)C(=O)Nc1ccccc12` [Example 290], the IC50 was less than 0.1 µM.

With `CC[C@H](NC(=O)C1(F)C(F)(F)C1(F)F)C(=O)N(C)[C@@H](CC(C)C)C(=O)N1C[C@]2(C[C@H]1C#N)C(=O)Nc1ccccc12` [Example 196], the IC50 was less than 0.1 µM.

Turning to `CC(C)C[C@@H](C(=O)N1C[C@]2(C[C@H]1C#N)C(=O)Nc1ccccc12)N(C)C(=O)[C@H](C)NC(=O)c1c(F)ccc2[nH]ccc12` [Example 185], the IC50 was less than 0.1 µM.

On to `C[C@H](NC(=O)OCc1ccccc1)C(=O)N[C@@H](CC(C)(C)C)C(=O)N1C[C@]2(C[C@H]1C#N)C(=O)Nc1ccccc12` [Example 227], for which the IC50 is less than 0.1 µM.

On to `CC(C)(C)C[C@H](NC(=O)[C@H](CC1CC1)NC(=O)C12CC(C)(C1)C2)C(=O)N1C[C@]2(C[C@H]1C#N)C(=O)Nc1ccccc12` [Example 317], for which the IC50 was less than 0.1 µM.

As for `C[C@H](NC(=O)C(F)(F)CCc1ccccc1)C(=O)N(C)[C@@H](CC(C)(C)C)C(=O)N1C[C@]2(C[C@H]1C#N)C(=O)Nc1ccccc12` [Example 244], the 50% inhibitory concentration (IC50) was less than 0.1 µM.

As for `CCCC(F)(F)C(=O)N[C@@H](C)C(=O)N(CC)[C@@H](CC(C)C)C(=O)N1C[C@]2(C[C@H]1C#N)C(=O)Nc1ccccc12` [Example 369], the IC50 is less than 0.1 µM.

For `[2H]C([2H])([2H])N(C(=O)[C@H](C)NC(=O)C(F)(F)F)[C@@H](CCCC)C(=O)N1C[C@]2(C[C@H]1C#N)C(=O)Nc1ccccc12` [Example 191], the IC50 is less than 0.1 µM.

For the molecule `CC(C)C[C@@H](C(=O)N1C[C@]2(C[C@H]1C#N)C(=O)Nc1ccccc12)N(C)C(=O)[C@H](C)NC(=O)C(=O)Nc1c(F)cccc1C(F)(F)F` [Example 202], the IC50 was less than 0.1 µM.

With `CC(C)C[C@@H](C(=O)N1C[C@]2(C[C@H]1C#N)C(=O)Nc1ccccc12)N(C)C(=O)[C@H](C)NC(=O)C(F)(F)C1CC1` [Example 285], the IC50 was less than 0.1 µM.

In the case of `CC(C)C[C@@H](C(=O)N1C[C@]2(C[C@H]1C#N)C(=O)Nc1ccccc12)N(C)C(=O)[C@H](C)NC(=O)c1cccc2cc(F)ccc12` [Example 295], the IC50 was less than 0.1 µM.

With `CC(C)(C)C[C@H](NC(=O)[C@H](CC1CC1)NC(=O)OC1CC1)C(=O)N1C[C@]2(C[C@H]1C#N)C(=O)Nc1ccccc12` [Example 311], the IC50 was less than 0.1 µM.

With `C[C@H](NC(=O)C(F)(F)C(F)(F)F)C(=O)N(C)[C@@H](CC1CC1)C(=O)N1C[C@]2(C[C@H]1C#N)C(=O)Nc1ccc(Cl)cc12` [Example 170], the IC50 was less than 0.1 µM.

As for `CCN1C[C@H]2CCCC[C@H]2C[C@H]1C(=O)N(C)[C@@H](CC(C)(C)C)C(=O)N1C[C@]2(C[C@H]1C#N)C(=O)Nc1ccccc12` [Example 179], the IC50 was less than 0.1 µM.

Turning to `CC(C)OC(=O)OCN1C(=O)[C@]2(C[C@@H](C#N)N(C(=O)[C@H](CC3CC3)N(C)C(=O)[C@H](C)NC(=O)C(F)(F)C(F)(F)F)C2)c2ccccc21` [Example 350], the IC50 lay within 0.1 to 1 µM.

For the molecule `CC(C)N1C[C@@H]2CCC[C@@H]2[C@H]1C(=O)N(C)[C@@H](CC(C)(C)C)C(=O)N1C[C@]2(C[C@H]1C#N)C(=O)Nc1ccccc12` [Example 181], the IC50 was less than 0.1 µM.

For `C[C@H](NC(=O)c1cccc2ccc(Cl)cc12)C(=O)N(C)[C@@H](CC(C)(C)C)C(=O)N1C[C@]2(C[C@H]1C#N)C(=O)Nc1ccccc12` [Example 294], the IC50 is less than 0.1 µM.

As for `C[C@@H]1NC(=O)CCCCCCCc2ccc3c(c2)[C@@]2(C[C@@H](C#N)N(C2)C(=O)[C@H](CC(C)(C)C)NC1=O)C(=O)N3` [Example 376], the IC50 is more than 1 µM.

Turning to `CCN(C(=O)[C@H](C)NC(=O)N1CCCCC1)[C@@H](CC(C)C)C(=O)N1C[C@]2(C[C@H]1C#N)C(=O)Nc1ccccc12` [Example 370], the IC50 is less than 0.1 µM.

For the molecule `CC(=O)Nc1cccn([C@H](CC(C)C)C(=O)N2C[C@]3(C[C@H]2C#N)C(=O)Nc2ccccc23)c1=O` [Example 358], the IC50 was less than 0.1 µM.

With `CCN(C(=O)[C@H](C)NC(=O)c1ccc(C(C)(C)C)cc1)[C@@H](CC(C)C)C(=O)N1C[C@]2(C[C@H]1C#N)C(=O)Nc1ccccc12` [Example 363], the IC50 is less than 0.1 µM.

On to `C[C@@H]1NC(=O)CCCCCc2ccc3c(c2)[C@@]2(C[C@@H](C#N)N(C2)C(=O)[C@H](CC(C)(C)C)NC1=O)C(=O)N3` [Example 375], for which the IC50 is more than 1 µM.

Regarding `CC(C)C[C@@H](C(=O)N1C[C@]2(C[C@H]1C#N)C(=O)Nc1ccccc12)N(C)C(=O)[C@@H]1CC[C@@H](c2ccc(F)cc2)N1C(C)C` [Example 238], the IC50 is less than 0.1 µM.

Regarding `CC(C)(C)C[C@H](NC(=O)[C@@H](Nc1ccc(F)cc1F)C1CC1)C(=O)N1C[C@]2(C[C@H]1C#N)C(=O)Nc1ccccc12` [Example 341], the IC50 is less than 0.1 µM.

As to `CCN1[C@H](C(=O)N(C)[C@@H](CC(C)C)C(=O)N2C[C@]3(C[C@H]2C#N)C(=O)Nc2ccccc23)CCC1(C)C` [Example 240], the IC50 is less than 0.1 µM.

On to `C[C@H](NC(=O)C(F)(F)C(F)(F)F)C(=O)N(C)[C@@H](CC(C)(C)C)C(=O)N1C[C@]2(C[C@H]1C#N)C(=O)Nc1c(Cl)cc(Cl)cc12` [Example 173], for which the IC50 was less than 0.1 µM.

In the case of `CC(C)N1CCc2cc(C(=O)N(C)[C@@H](CC(C)(C)C)C(=O)N3C[C@]4(C[C@H]3C#N)C(=O)Nc3ccccc34)[nH]c2C1` [Example 176], the IC50 was less than 0.1 µM.

For the molecule `CC(C)C[C@@H](C(=O)N1C[C@]2(C[C@H]1C#N)C(=O)Nc1ccccc12)N(C)C(=O)[C@H](C)NC(=O)C1CC1(C)C` (some centres unmarked) [Example 265], the IC50 is less than 0.1 µM.

For `C[C@H](NC(=O)c1cc(OC(F)(F)F)c2ncccc2c1)C(=O)N(C)[C@@H](CC(C)(C)C)C(=O)N1C[C@]2(C[C@H]1C#N)C(=O)Nc1ccccc12` [Example 210], the IC50 is less than 0.1 µM.

On to `CC(C)C[C@@H](C(=O)N1C[C@]2(C[C@H]1C#N)C(=O)Nc1ccc(Br)cc12)N(C)C(=O)[C@H](C)NC(=O)C(F)(F)C(F)(F)F` [Example 169], for which the IC50 is less than 0.1 µM.

In the case of `CC(C)(C)C[C@H](NC(=O)[C@H](CC1CC1)NC(=O)C1CCC2(CC1)CC2)C(=O)N1C[C@]2(C[C@H]1C#N)C(=O)Nc1ccccc12` [Example 322], the IC50 is less than 0.1 µM.

`CC(C)C(=O)N[C@@H](C)C(=O)N[C@@H](CC(C)(C)C)C(=O)N1C[C@]2(C[C@H]1C#N)C(=O)Nc1ccccc12` [Example 223]: the IC50 was less than 0.1 µM.

Consider `CC(C)(C)C[C@H](NC(=O)[C@H](CC1CC1)NC(=O)c1cnn(-c2ccc(C(F)(F)F)cc2)c1)C(=O)N1C[C@]2(C[C@H]1C#N)C(=O)Nc1ccccc12` [Example 306], for which the IC50 is less than 0.1 µM.

As to `C[C@@H]1CC[C@@H](C(=O)N(C)[C@@H](CC(C)(C)C)C(=O)N2C[C@]3(C[C@H]2C#N)C(=O)Nc2ccccc23)N1C` [Example 239], the IC50 was less than 0.1 µM.

`C[C@H](NC(=O)C(F)(F)C(F)(F)F)C(=O)N(C)[C@@H](C)C(=O)N1C[C@]2(C[C@H]1C#N)C(=O)Nc1ccccc12` [Example 207]: the IC50 is less than 0.1 µM.

In the case of `CC[C@H](NC(=O)c1ccc(F)cc1C(F)(F)F)C(=O)N(C)[C@@H](CC(C)C)C(=O)N1C[C@]2(C[C@H]1C#N)C(=O)Nc1ccccc12` [Example 194], the IC50 is less than 0.1 µM.

As for `CC(C)C[C@@H](C(=O)N1C[C@]2(C[C@H]1C#N)C(=O)Nc1ccccc12)N(C)C(=O)[C@@H]1C[C@H]2C[C@H]2N1C1CC1` [Example 258], the IC50 was less than 0.1 µM.

`COCCC(=O)N[C@@H](C)C(=O)N(C)[C@@H](CC(C)(C)C)C(=O)N1C[C@]2(C[C@H]1C#N)C(=O)Nc1ccccc12` [Example 262]: the IC50 was less than 0.1 µM.

On to `CN(C(=O)[C@@H]1C[C@H](c2ccccc2)CN1)[C@@H](CC(C)(C)C)C(=O)N1C[C@]2(C[C@H]1C#N)C(=O)Nc1ccccc12` [Example 231], for which the IC50 is less than 0.1 µM.

Turning to `CC[C@H](NC(=O)C(F)(F)C(F)(F)F)C(=O)N(C)[C@@H](CC(C)C)C(=O)N1C[C@]2(C[C@H]1C#N)C(=O)Nc1ccccc12` [Example 200], the IC50 is less than 0.1 µM.

`C[C@H](NC(=O)C(F)(F)c1ccc(F)cc1)C(=O)N(C)[C@@H](CC(C)(C)C)C(=O)N1C[C@]2(C[C@H]1C#N)C(=O)Nc1ccccc12` [Example 308]: the IC50 was less than 0.1 µM.

With `CCN(C(=O)[C@H](C)NC(=O)OC(C)C)[C@@H](CC(C)C)C(=O)N1C[C@]2(C[C@H]1C#N)C(=O)Nc1ccccc12` [Example 371], the concentration for half-maximal inhibition (IC50) was less than 0.1 µM.

As to `CC[C@H](NC(=O)C(=O)Nc1c(F)cccc1C(F)(F)F)C(=O)N(C)[C@@H](CC(C)C)C(=O)N1C[C@]2(C[C@H]1C#N)C(=O)Nc1ccccc12` [Example 193], the IC50 was less than 0.1 µM.

Consider `CN(C(=O)c1cc2c([nH]1)CN(C(=O)C(F)(F)F)CC2)[C@@H](CC(C)(C)C)C(=O)N1C[C@]2(C[C@H]1C#N)C(=O)Nc1ccccc12` [Example 175], for which the IC50 lay within 0.1 to 1 µM.

For `CC(C)(C)C[C@H](NC(=O)[C@H](CC1CC1)NC(=O)c1cnn(C2CC2)c1)C(=O)N1C[C@]2(C[C@H]1C#N)C(=O)Nc1ccccc12` [Example 323], the IC50 is less than 0.1 µM.

Turning to `CC(C)C[C@@H](C(=O)N1C[C@]2(C[C@H]1C#N)C(=O)Nc1ccccc12)N(C)C(=O)[C@H](C)NC(=O)C12CC3CC(CC(C3)C1)C2` [Example 298], the concentration for half-maximal inhibition (IC50) is less than 0.1 µM.

As to `CC(C)(C)C[C@H](NC(=O)[C@@H](Nc1ccccc1)C1CC1)C(=O)N1C[C@]2(C[C@H]1C#N)C(=O)Nc1ccccc12` [Example 340], the IC50 is less than 0.1 µM.

For the molecule `C[C@H](NC(c1ccc(F)cc1)C(F)(F)F)C(=O)N(C)[C@@H](CC(C)(C)C)C(=O)N1C[C@]2(C[C@H]1C#N)C(=O)Nc1ccccc12` (some centres unmarked) [Example 302], the half-inhibitory concentration (IC50) was less than 0.1 µM.
